Assay: Inhibition of aggregation of human gel-filtered platelets measured by light transmittance method at 37 degrees C.

SMILES	IC50
O=C(O)C[C@H](NC(=O)CN1CCc2ccc(N3CCNCC3)cc2C1=O)c1cccnc1 [(S)-3-[2-(1-Oxo-7-piperazin-1-yl-3,4-dihydro-1H-isoquinolin-2-yl)-acetylamino]-3-pyridin-3-yl-propionic acid]	0.013 µM
C#C[C@H](CC(=O)O)NC(=O)CN1CCc2ccc(N3CCNCC3)cc2C1=O [L-767679]	0.015 µM
C#C[C@H](CC(=O)O)NC(=O)C[C@H]1CCCN(CCC2CCNCC2)C1=O [(S)-3-{2-[(R)-2-Oxo-1-(2-piperidin-4-yl-ethyl)-piperidin-3-yl]-acetylamino}-pent-4-ynoic acid]	0.015 µM
Cc1ccc(S(=O)(=O)N[C@@H](CNC(=O)c2cc3n(n2)CCCN(CCC2CCNCC2)C3=O)C(=O)O)cc1 [(S)-3-{[4-Oxo-5-(2-piperidin-4-yl-ethyl)-5,6,7,8-tetrahydro-4H-1,5,8a-triaza-azulene-2-carbonyl]-amino}-2-(toluene-4-sulfonylamino)-propionic acid]	0.008 µM
O=C(CN1CCc2ccc(N3CCNCC3)cc2C1=O)NC[C@H](NS(=O)(=O)c1ccccc1)C(=O)O [(S)-2-Benzenesulfonylamino-3-[2-(1-oxo-7-piperazin-1-yl-3,4-dihydro-1H-isoquinolin-2-yl)-acetylamino]-propionic acid]	0.035 µM
C[C@H](CC(=O)O)NC(=O)CN1CCC[C@@H](CCC2CCNCC2)C1=O [3-{2-[2-Oxo-3-(2-piperidin-4-yl-ethyl)-piperidin-1-yl]-acetylamino}-butyric acid (L-734217)]	0.032 µM
O=C(O)CCNC(=O)CN1CCc2ccc(N3CCNCC3)cc2C1=O [3-[2-(1-Oxo-7-piperazin-1-yl-3,4-dihydro-1H-isoquinolin-2-yl)-acetylamino]-propionic acid]	0.14 µM
O=C(O)C[C@@H](CO)NC(=O)c1ccc2c(c1)C(=O)N(CCC1CCNCC1)C2 [(S)-4-Hydroxy-3-{[3-oxo-2-(2-piperidin-4-yl-ethyl)-2,3-dihydro-1H-isoindole-5-carbonyl]-amino}-butyric acid]	0.008 µM
C#C[C@H](CC(=O)O)NC(=O)c1ccc2c(c1)C(=O)N(CCc1ccnc(N)c1)C2 [(S)-3-({2-[2-(2-Amino-pyridin-4-yl)-ethyl]-3-oxo-2,3-dihydro-1H-isoindole-5-carbonyl}-amino)-pent-4-ynoic acid]	0.027 µM
O=C(NC[C@H](NS(=O)(=O)c1ccccc1)C(=O)O)c1ccc2c(c1)C(=O)N(CCC1CCNCC1)C2 [(S)-2-Benzenesulfonylamino-3-{[3-oxo-2-(2-piperidin-4-yl-ethyl)-2,3-dihydro-1H-isoindole-5-carbonyl]-amino}-propionic acid]	0.008 µM
O=C(O)C[C@@H](CO)NC(=O)CN1CCc2ccc(N3CCNCC3)cc2C1=O [(S)-4-Hydroxy-3-[2-(1-oxo-7-piperazin-1-yl-3,4-dihydro-1H-isoquinolin-2-yl)-acetylamino]-butyric acid]	0.081 µM
C#CC(CC(=O)O)NC(=O)CN(C(=O)c1cccc(C2CCNCC2)c1)C1CC1 (stereo not drawn) [3-{2-[Cyclopropyl-(3-piperidin-4-yl-benzoyl)-amino]-acetylamino}-pent-4-ynoic acid]	0.015 µM
C#CC(CCCN1CCC[C@@H](CCC2CCNCC2)C1=O)CC(=O)O (stereo partly drawn) [3-Ethynyl-6-[(R)-2-oxo-3-(2-piperidin-4-yl-ethyl)-piperidin-1-yl]-hexanoic acid]	0.051 µM
O=C(O)C[C@H](NC(=O)CN1CCC[C@@H](CCC2CCNCC2)C1=O)c1cccnc1 [(S)-3-{2-[(R)-2-Oxo-3-(2-piperidin-4-yl-ethyl)-piperidin-1-yl]-acetylamino}-3-pyridin-3-yl-propionic acid]	0.01 µM
C[C@@H](/C=C/CN1CCC[C@@H](CCC2CCNCC2)C1=O)CC(=O)O [(E)-(R)-3-Methyl-6-[(R)-2-oxo-3-(2-piperidin-4-yl-ethyl)-piperidin-1-yl]-hex-4-enoic acid]	0.057 µM
C#C[C@H](CC(=O)O)NC(=O)CN1CCC[C@@H](CCc2ccnc(N)c2)C1=O [(S)-3-(2-{(R)-3-[2-(2-Amino-pyridin-4-yl)-ethyl]-2-oxo-piperidin-1-yl}-acetylamino)-pent-4-ynoic acid]	0.028 µM
O=C(NC[C@H](NS(=O)(=O)c1ccccc1)C(=O)O)c1ccc(OCCC2CCNCC2)cc1 [2-Benzenesulfonylamino-3-[4-(2-piperidin-4-yl-ethoxy)-benzoylamino]-propionic acid]	0.013 µM
O=C(O)C[C@H](NC(=O)C[C@H]1CCCN(CCC2CCNCC2)C1=O)c1cccnc1 [(S)-3-{2-[(R)-2-Oxo-1-(2-piperidin-4-yl-ethyl)-piperidin-3-yl]-acetylamino}-3-pyridin-3-yl-propionic acid]	0.009 µM
O=C(CN1CCC[C@@H](CCC2CCNCC2)C1=O)NC[C@H](NS(=O)(=O)c1ccccc1)C(=O)O [(S)-2-Benzenesulfonylamino-3-{2-[(R)-2-oxo-3-(2-piperidin-4-yl-ethyl)-piperidin-1-yl]-acetylamino}-propionic acid]	0.011 µM
CC(CC(=O)O)NC(=O)c1ccc2c(c1)C(=O)N(CCC1CCNCC1)C2 (stereo not drawn) [3-{[3-Oxo-2-(2-piperidin-4-yl-ethyl)-2,3-dihydro-1H-isoindole-5-carbonyl]-amino}-butyric acid]	0.065 µM
C#C[C@H](CC(=O)O)NC(=O)CN1CCC[C@@H](CCC2CCNCC2)C1=O [(S)-3-{2-[(R)-2-Oxo-3-(2-piperidin-4-yl-ethyl)-piperidin-1-yl]-acetylamino}-pent-4-ynoic acid]	0.013 µM
O=C(NC[C@H](NS(=O)(=O)c1ccccc1)C(=O)O)c1cc2cc(OCCC3CCNCC3)ccc2[nH]1 [(S)-2-Benzenesulfonylamino-3-{[5-(2-piperidin-4-yl-ethoxy)-1H-indole-2-carbonyl]-amino}-propionic acid]	0.01 µM
C#C[C@H](CC(=O)O)NC(=O)C[C@H]1CCCN(CCc2ccnc(N)c2)C1=O [(S)-3-(2-{(R)-1-[2-(2-Amino-pyridin-4-yl)-ethyl]-2-oxo-piperidin-3-yl}-acetylamino)-pent-4-ynoic acid]	0.019 µM
